Consider 30 compounds from US10150793B2, “Antagonists of CB1 receptor” (INSERM (Institut National de la Santé et de la Recherche …, priority 2011, dated 2018).

The series relates to CHO cells. Description: Study of metabolism in vitro in CHO cells, steroids in culture medium by GC/MS. To be noted: CHO cells. Here is the method: Plasma, brain and culture medium levels of pregnenolone (5-Pregnen-3β-ol-20-one), allopregnanolone (3α-hydroxy-5α-pregnan-20-one), epiallopregnanolone (3β-hydroxy-5α-pregnan-ol-20-one), testosterone, and 5α dihydrotestosterone were determined by GC/MS according to the of estraction, purification and quantification protocol described previously (George O, et al., Biol Psychiatry. 2010 68: 956-63, Vallee M, et al., Anal Biochem. 2000, 287:153-66).
The CHO-K1 cell line (#CCL-61, ATCC-LGC, USA) derived as a subclone from the parental CHO cell line initiated from a biopsy of an adult Chinese hamster ovary was used. The CHO-K1 cells were seeded on 24-well plates (#353047, BD Biosciences, USA) to the appropriate concentration (25×10^4 cells/well) in fresh, antibiotic-free medium constituted by 90% DMEM-Glutamax; (#31966-21, Life technologies, USA) and 10% Fetal Bovine Serum (#10270-106, Life technologies, USA).
In this example the inventors further analyzed the metabolism of pregnenolone derivatives using an in vitro test in CHO cells. These cells derived from the ovary have all the enzymes needed to metabolize pregnenolone in down stream steroids.
Consider `CCC1=CC[C@H]2[C@@H]3CC=C4C[C@@H](O)CC[C@]4(C)[C@H]3CC[C@]12C` [Compound 6, 5,16-Pregnadien-3β-ol], for which the “metabolism in downstream active steroids (Reduced metabolism / Metabolized)” value (“metabolism … (Reduced metabolism / Metabolized)” for short) is given as “Metabolized”.
The entry for `CC(=O)C1=CCC2C3CC=C4C[C@@H](O)CC[C@]4(C)C3CC[C@]12C` (stereo partly drawn) [Compound 7, 5,16-Pregnadien-3β-ol-20-one] is “Metabolized”; for `C[C@@H](O)[C@H]1CCC2C3CC[C@H]4C[C@@H](O)CC[C@]4(C)C3CC[C@@]21C` (stereo partly drawn) [Compound 8, 5α-Pregnan-3β,20α-diol] it is “Metabolized”; for `CC(=O)C1CCC2C3CC[C@H]4C[C@@H](OC(=O)CCC(=O)O)CC[C@]4(C)C3CC[C@]12C` (stereo partly drawn) [Compound 10, 5α-Pregnan-3α-ol-20-one hemisuccinate (Allopregnanolone hemisuccinate)] it is “Metabolized”.
In the case of `CC(=O)[C@H]1CCC2C3CC[C@H]4C[C@@H](O)CC[C@]4(C)C3CC[C@@]21C` (stereo partly drawn) [Compound 11, 5α-Pregnan-3β-ol-20-one (Epiallopregnanolone)] it was “Metabolized”; in that of `C[C@@H](O)[C@H]1CCC2C3CCC4=C[C@@H](O)CC[C@]4(C)C3CC[C@@]21C` (stereo partly drawn) [Compound 13, 4-Pregnen-3β,20β-diol], “Metabolized”; in that of `C[C@@H](O)[C@@]1(O)CCC2C3CCC4=CC(=O)CC[C@]4(C)C3CC[C@@]21C` (stereo partly drawn) [Compound 15, 4-Pregnen-17α,20β-diol-3-one], “Metabolized”.
Take `CC(=O)[C@H]1CCC2C3CCC4=C[C@@H](O)CC[C@]4(C)C3CC[C@@]21C` (stereo partly drawn) [Compound 17, 4-Pregnen-3β-ol-20-one]: the “metabolism … (Reduced metabolism / Metabolized)” value is recorded as “Metabolized”.
In the case of `C[C@@H](O)[C@H]1CCC2C3CCC4=CC(=O)CC[C@]4(C)C3CC[C@@]21C` (stereo partly drawn) [Compound 19, 4-Pregnen-20β-ol-3-one] it was “Metabolized”.
As to `C[C@@H](O)[C@H]1CCC2C3CC=C4C[C@@H](O)CC[C@]4(C)C3CC[C@@]21C` (stereo partly drawn) [Compound 21, 5-Pregnen-3β,20β-diol], the “metabolism … (Reduced metabolism / Metabolized)” value is reported as “Metabolized”.
Consider `CC(=O)[C@]1(O)CCC2C3CC=C4C[C@@H](O)CC[C@]4(C)C3CC[C@@]21C` (stereo partly drawn) [Compound 22, 17α-Hydroxypregnenolone], for which the “metabolism … (Reduced metabolism / Metabolized)” value is “Metabolized”.
In the case of `CC(=O)[C@]1(O)CCC2C3CC=C4C[C@@H](OC(=O)CCC(=O)O)CC[C@]4(C)C3CC[C@@]21C` (stereo partly drawn) [Compound 23, 17α-Hydroxypregnenolone hemisuccinate] it was “Metabolized”; in that of `C[C@]12CC[C@H](O)CC1=CCC1C2CC[C@@]2(C)C1CC[C@@H]2C(=O)CO` (stereo partly drawn) [Compound 26, 5-Pregnen-3β,21-diol-20-one], “Metabolized”; in that of `CO[C@H]1CC[C@@]2(C)C(=CCC3C2CC[C@@]2(C)C3CC[C@@H]2C(C)=O)C1` (stereo partly drawn) [Compound 33, 3β-Methoxypregnenolone], “Metabolized”.
The entry for `CCO[C@H]1CC[C@@]2(C)C(=CCC3C2CC[C@@]2(C)C3CC[C@@H]2C(C)=O)C1` (stereo partly drawn) [Compound 34, 3β-Ethoxypregnenolone] is “Metabolized”.
For the compound `CC(=O)[C@H]1CCC2C3CC=C4CCCC[C@]4(C)C3CC[C@@]21C` (stereo partly drawn) [Compound 37, 3-Dehydroxypregnenolone], the “metabolism … (Reduced metabolism / Metabolized)” value is listed as “Metabolized”.
For the compound `CC(O)C1=CC[C@H]2[C@@H]3CC=C4C[C@@H](O)CC[C@]4(C)[C@H]3CC[C@]12C` (stereo partly drawn) [Compound 38, 5,16-Pregnadien-3β,20-diol], the “metabolism … (Reduced metabolism / Metabolized)” value is listed as “Metabolized”.
For `CC(=O)[C@@]1(C)CCC2C3CC=C4C[C@@H](OCc5ccccc5)CC[C@]4(C)C3CC[C@@]21C` (stereo partly drawn) [Compound 42, 3β-Benzyloxy-17α-methylpregnenolone], the “metabolism … (Reduced metabolism / Metabolized)” value is “Reduced metabolism”.
In the case of `C[C@]12CC[C@H](O)CC1=CCC1C2CC[C@]2(C)C(=O)CCC12` (stereo partly drawn) [Compound 50, 5-Androsten-3β-ol-17-one (DHEA), reference compound] it was “Metabolized”; in that of `C[C@]12CC[C@H]3[C@@H](CCC4=CC(=O)CC[C@@]43C)[C@@H]1CC[C@@H]2C(=O)CO` [Compound 52, 4-Pregnen-21-ol-3,20-dione], “Metabolized”.
Consider `CC(=O)[C@H]1CC[C@H]2[C@@H]3CC=C4C[C@@H](OS(=O)(=O)[O-])CC[C@]4(C)[C@H]3CC[C@]12C.[Na+]` [Compound 53, Pregnenolone sulfate sodium], for which the “metabolism … (Reduced metabolism / Metabolized)” value is given as “Metabolized”.
In the case of `CC(=O)O[C@H]1CC[C@@]2(C)C(=CCC3C2CC[C@@]2(C)C3CC[C@@H]2C(C)=O)C1` (stereo partly drawn) [Compound 55, 3β-Acetoxypregnenolone] it was “Metabolized”; in that of `CC(=O)[C@@]1(Cc2ccccc2)CCC2C3CC=C4C[C@@H](OCc5ccccc5)CC[C@]4(C)C3CC[C@@]21C` (stereo partly drawn) [Compound 63, 17α-Benzyl-3β-benzyloxypregnenolone], “Reduced metabolism”.
For the compound `C=CC[C@]1(C(C)=O)CCC2C3CC=C4C[C@@H](O)CC[C@]4(C)C3CC[C@@]21C` (stereo partly drawn) [Compound 64, 17α-Allylpregnenolone], the “metabolism … (Reduced metabolism / Metabolized)” value is listed as “Metabolized”.
In the case of `CC(=O)C1CCC2C3CC=C4C[C@@H](N)CC[C@]4(C)C3CC[C@]12C` (stereo partly drawn) [Compound 66, 3β-Aminopregnenolone] it was “Metabolized”; in that of `CCOC1(C(C)=O)CCC2C3CC=C4C[C@@H](O)CC[C@]4(C)C3CC[C@@]21C` (stereo partly drawn) [Compound 71, 17-Ethoxypregnenolone], “Metabolized”.
Take `CC(=O)[C@@]1(Cc2ccccc2)CCC2C3CCC4=CC(=O)CC[C@]4(C)C3CC[C@@]21C` (stereo partly drawn) [Compound 73, 17α-Benzylprogesterone]: the “metabolism … (Reduced metabolism / Metabolized)” value is listed as “Reduced metabolism”.
On to `CC(=O)[C@@]1(Cc2ccccc2)CCC2C3CC=C4C[C@@H](F)CC[C@]4(C)C3CC[C@@]21C` (stereo partly drawn) [Compound 74, 17α-Benzyl-3β-fluoropregnenolone], for which the “metabolism … (Reduced metabolism / Metabolized)” value is given as “Reduced metabolism”.
For `C[C@]12CCC3C(CC[C@@H]4C[C@@H](O)CC[C@]34C)C1CC[C@@H]2C(=O)CO` (stereo partly drawn) [Compound 75, 5α-Pregnan-3α,21-diol-20-one], the “metabolism … (Reduced metabolism / Metabolized)” value is “Metabolized”.
In the case of `C[C@]12CCC3C(CC[C@H]4C[C@@H](O)CC[C@]34C)C1CC[C@@H]2C(=O)CO` (stereo partly drawn) [Compound 76, 5α-Pregnan 3β,21-diol-20-one] it was “Metabolized”.
